The target in assay [1] is Mitogen-activated protein kinase kinase kinase 1 (Homo sapiens, UniProt Q13233). Kind of assay: Inhibition of MEKK1.
Assay [2] deals with Dual specificity mitogen-activated protein kinase kinase 1 (Homo sapiens, UniProt Q02750). The assay can be described thus: Inhibition of MEK1.
Assay [3] concerns the target Proto-oncogene tyrosine-protein kinase Src (Gallus gallus, UniProt P00523, T338G). The assay can be described thus: Inhibition of chicken c-Src T338G mutant.
For assay [4], the target named is T1, Proto-oncogene tyrosine-protein kinase Src (Gallus gallus, UniProt P00523). Kind of assay: Inhibition of chicken c-Src.
For assay [5], the target named is T1, Proto-oncogene tyrosine-protein kinase Src. The assay can be described thus: Inhibition of chicken c-Src using IYGEFKKK peptide as a substrate and [32P]ATP by […].
Assay [6] relates to Mus musculus. The assay can be described thus: Receptor occupancy of Btk in CIA mouse model at 60 mg/kg/day. The format is functional.
For assay [7], the target named is RAC-alpha serine/threonine-protein kinase (Homo sapiens, UniProt P31749). Kind of assay: Inhibition of human AKT1 using biotinylated GSKalpha peptide (SGRARTSSFA) as a substrate after 1 hr.
The target in assay [8] is T2, Dual specificity mitogen-activated protein kinase kinase 7 (Homo sapiens, UniProt O14733).
T2 sequence (O14733 whole entry): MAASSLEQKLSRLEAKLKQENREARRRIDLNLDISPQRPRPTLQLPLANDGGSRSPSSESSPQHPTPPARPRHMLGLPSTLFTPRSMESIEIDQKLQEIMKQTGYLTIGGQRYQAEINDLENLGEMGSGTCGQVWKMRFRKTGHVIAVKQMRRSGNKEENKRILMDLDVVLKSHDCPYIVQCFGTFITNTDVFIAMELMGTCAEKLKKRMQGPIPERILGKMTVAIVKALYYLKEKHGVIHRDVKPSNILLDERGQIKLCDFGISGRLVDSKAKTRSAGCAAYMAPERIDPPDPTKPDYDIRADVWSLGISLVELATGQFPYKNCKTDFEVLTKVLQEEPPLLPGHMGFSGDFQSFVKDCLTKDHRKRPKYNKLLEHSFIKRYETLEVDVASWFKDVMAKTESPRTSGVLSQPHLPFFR
Kind of assay: Inhibition of MEK7.

Assay [9] has as its target Mitogen-activated protein kinase 1 (Homo sapiens, UniProt P28482). The assay can be described thus: Inhibition of Erk2.
Assay [10] deals with T3, Dual specificity mitogen-activated protein kinase kinase 4 (Homo sapiens, UniProt P45985).
T3 sequence (P45985 whole entry): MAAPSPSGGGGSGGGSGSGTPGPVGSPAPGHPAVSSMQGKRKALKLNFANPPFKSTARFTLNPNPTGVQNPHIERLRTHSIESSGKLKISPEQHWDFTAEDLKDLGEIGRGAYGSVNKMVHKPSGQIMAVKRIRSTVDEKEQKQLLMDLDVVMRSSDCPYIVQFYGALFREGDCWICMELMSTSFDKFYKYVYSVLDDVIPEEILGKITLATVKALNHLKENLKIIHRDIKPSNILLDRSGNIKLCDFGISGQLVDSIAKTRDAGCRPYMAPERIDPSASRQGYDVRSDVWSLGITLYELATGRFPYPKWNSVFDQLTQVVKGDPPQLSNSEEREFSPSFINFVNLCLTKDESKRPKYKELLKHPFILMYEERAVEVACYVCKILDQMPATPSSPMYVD
The assay can be described thus: Inhibition of MKK4.

Structures are written as SMILES.

What is called IC50 is the concentration that gives 50% inhibition.

Chain of Dual specificity mitogen-activated protein kinase kinase 1 (Q02750 whole entry): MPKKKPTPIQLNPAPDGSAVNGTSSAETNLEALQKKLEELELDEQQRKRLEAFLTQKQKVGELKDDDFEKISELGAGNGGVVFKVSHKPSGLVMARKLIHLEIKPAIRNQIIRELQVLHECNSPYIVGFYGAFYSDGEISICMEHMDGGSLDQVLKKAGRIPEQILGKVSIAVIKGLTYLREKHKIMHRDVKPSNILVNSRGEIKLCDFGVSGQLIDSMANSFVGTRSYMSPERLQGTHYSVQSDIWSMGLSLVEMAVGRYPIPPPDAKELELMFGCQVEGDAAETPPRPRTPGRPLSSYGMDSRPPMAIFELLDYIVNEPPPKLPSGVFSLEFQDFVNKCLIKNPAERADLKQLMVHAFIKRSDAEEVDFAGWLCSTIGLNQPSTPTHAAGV
Chain of Mitogen-activated protein kinase kinase kinase 1 (Q13233 whole entry): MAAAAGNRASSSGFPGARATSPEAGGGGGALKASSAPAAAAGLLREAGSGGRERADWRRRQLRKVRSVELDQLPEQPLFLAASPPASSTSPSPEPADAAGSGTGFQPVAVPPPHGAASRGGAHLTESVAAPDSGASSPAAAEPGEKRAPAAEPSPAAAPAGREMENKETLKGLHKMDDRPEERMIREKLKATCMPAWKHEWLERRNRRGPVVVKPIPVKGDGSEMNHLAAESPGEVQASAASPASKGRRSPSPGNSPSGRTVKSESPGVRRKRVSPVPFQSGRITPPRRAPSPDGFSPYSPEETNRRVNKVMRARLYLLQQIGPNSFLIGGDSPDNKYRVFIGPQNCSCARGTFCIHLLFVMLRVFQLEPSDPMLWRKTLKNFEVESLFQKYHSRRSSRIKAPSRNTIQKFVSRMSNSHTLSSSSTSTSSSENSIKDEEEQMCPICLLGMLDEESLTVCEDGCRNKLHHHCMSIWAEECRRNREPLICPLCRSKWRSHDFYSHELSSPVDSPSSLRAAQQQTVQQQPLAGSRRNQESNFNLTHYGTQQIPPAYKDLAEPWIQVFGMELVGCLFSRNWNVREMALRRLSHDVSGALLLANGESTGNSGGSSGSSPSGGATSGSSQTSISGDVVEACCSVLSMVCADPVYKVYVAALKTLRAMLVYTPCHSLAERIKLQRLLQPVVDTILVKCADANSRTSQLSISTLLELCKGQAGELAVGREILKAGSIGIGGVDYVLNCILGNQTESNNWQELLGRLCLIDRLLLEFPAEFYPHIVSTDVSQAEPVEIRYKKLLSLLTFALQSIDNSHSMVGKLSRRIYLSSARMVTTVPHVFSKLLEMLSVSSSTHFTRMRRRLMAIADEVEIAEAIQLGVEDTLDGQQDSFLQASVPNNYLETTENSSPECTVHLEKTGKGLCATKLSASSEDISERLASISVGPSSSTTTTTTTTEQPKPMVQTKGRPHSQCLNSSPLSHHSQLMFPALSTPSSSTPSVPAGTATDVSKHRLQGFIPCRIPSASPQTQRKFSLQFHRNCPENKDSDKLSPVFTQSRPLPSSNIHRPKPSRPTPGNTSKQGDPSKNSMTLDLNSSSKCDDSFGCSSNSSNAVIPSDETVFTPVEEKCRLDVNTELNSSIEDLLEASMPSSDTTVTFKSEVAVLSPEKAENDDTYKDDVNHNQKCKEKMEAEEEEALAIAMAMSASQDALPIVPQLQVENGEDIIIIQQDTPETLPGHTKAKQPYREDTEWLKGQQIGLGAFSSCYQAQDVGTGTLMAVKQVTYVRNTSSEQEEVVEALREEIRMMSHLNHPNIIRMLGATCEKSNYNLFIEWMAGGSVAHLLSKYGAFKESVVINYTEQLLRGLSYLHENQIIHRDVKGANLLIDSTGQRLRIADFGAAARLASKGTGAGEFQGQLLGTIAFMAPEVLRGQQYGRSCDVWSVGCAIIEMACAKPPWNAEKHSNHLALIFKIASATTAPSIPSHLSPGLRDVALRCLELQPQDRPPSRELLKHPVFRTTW
Chain of RAC-alpha serine/threonine-protein kinase (P31749 whole entry): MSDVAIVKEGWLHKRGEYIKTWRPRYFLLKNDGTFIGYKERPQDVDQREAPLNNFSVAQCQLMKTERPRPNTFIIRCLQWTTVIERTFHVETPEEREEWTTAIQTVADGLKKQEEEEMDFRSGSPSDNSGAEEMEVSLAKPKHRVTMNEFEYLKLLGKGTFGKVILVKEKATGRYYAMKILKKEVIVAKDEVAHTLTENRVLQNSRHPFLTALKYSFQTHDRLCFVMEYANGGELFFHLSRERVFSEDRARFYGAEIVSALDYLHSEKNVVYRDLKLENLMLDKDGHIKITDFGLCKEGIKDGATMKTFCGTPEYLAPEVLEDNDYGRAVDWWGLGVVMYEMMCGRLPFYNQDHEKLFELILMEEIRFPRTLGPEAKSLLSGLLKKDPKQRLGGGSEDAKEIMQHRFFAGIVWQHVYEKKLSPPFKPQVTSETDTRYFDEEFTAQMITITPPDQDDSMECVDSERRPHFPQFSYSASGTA
Chain of Mitogen-activated protein kinase 1 (P28482 whole entry): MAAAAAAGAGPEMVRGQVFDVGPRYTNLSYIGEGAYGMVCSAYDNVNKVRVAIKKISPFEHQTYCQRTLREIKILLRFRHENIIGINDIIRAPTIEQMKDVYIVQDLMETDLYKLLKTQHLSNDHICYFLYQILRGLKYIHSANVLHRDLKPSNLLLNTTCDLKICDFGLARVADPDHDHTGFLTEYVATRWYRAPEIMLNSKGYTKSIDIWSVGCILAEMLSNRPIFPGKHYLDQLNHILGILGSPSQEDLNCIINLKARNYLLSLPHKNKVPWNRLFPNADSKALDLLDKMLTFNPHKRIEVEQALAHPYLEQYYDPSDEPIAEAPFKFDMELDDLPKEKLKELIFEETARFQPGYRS

As to `CCNc1cc(O)c2c(c1)/C=C/C[C@@H](O)[C@H](O)C(=O)/C=C\[C@H](C)[C@H](C)OC2=O`, the IC50 in [1] was determined as 0.031 µM; in assay [2], 0.0052 µM.

For `CC#CC(=O)Nc1ccc2ncnc(Nc3cccc(Br)c3)c2c1`, the IC50 in [3] is 0.001 µM; in [4], greater than 27 µM.

`O=C(Nc1ccc2ncnc(Nc3cccc(Br)c3)c2c1)[C@@H]1O[C@H]1CN1CCCCC1`: the IC50 in [3] is 0.001 µM; in assay [4], greater than 27 µM.

For `CN(C)C/C=C/C(=O)Nc1ccc2ncnc(Nc3cccc(Br)c3)c2c1`, the IC50 in assay [3] was 0.001 µM; in assay [4] it was greater than 27 µM.

For `C=CS(=O)(=O)Nc1cccc(Cc2nn(C(C)C)c3ncnc(N)c23)c1`, the 50% inhibitory concentration (IC50) in [5] was greater than 5 µM.

`C=CC(=O)Nc1cccc(Nc2nc(Nc3ccc(Oc4ccnc(C(=O)NC)c4)cc3)ncc2F)c1` displayed an Occ in assay [6] of 70%.

Turning to `CCC[C@H]1O[C@@H]2CC(=O)O[C@@H]2C2=C1C(=O)c1c(O)cccc1C2=O` [FRENOLICIN B], in assay [7], the IC50 came to 0.313 µM.

Regarding `COc1cc(O)c2c(c1)/C=C/C[C@H](O)[C@H](O)C(=O)/C=C\C[C@H](C)OC2=O`, the IC50 in [8] was 0.3 µM; in assay [9] it was 0.08 µM; in assay [2] it was 0.006 µM; in assay [10], greater than 3 µM.
